Experiments:
Assay type in all cases: biochemical
[1] = target: T1, human HDAC3/SMRT heterodimer (Homo sapiens, UniProt O15379); assay: Human HDAC enzyme inhibitor Fluor-de-Lys assay, HDAC3/SMRT; details: HDAC3/SMRT 0.3 nM enzyme, 20 μM substrate BML-KI104, 10 μM IP4, 3 h pre-incubation, 60 min reaction; read-out: HDAC3_IC50
T1 construct: Full length human HDAC3-FLAG was expressed in HEK-293F cells along with SMRT; host or cells: HEK-293F cells
From the text: (§1) Recombinant human HDAC8 (catalog number BML-SE145-0100) and HDAC10 (catalog number BML-SE559-0050) enzymes, HDAC substrates BML-KI104 and BML-KI178, and HDAC developer solutions BML-KI105 and BML-KI176 were purchased from Enzo Life Sciences (Farmingdale, NY). Recombinant human HDAC5 and HDAC11 were purchased from BPS Bioscience (San Diego, CA)(catalog numbers 50045 and 50021). Substrate Boc-Lys(TFA)-AMC was obtained from Bachem (Bupendorf, Switzerland) (catalog number 1-1985). HDAC inhibitor suberoylanilide hydroxamic acid (SAHA) was obtained from Indofine (Hillsborough Township, NJ) and trichostatin A (TSA) was obtained from Sigma-Aldrich (St. Louis, MO). […] HEPES pH 8.0 was obtained from Boston BioProducts (Ashland, MA), Tween-20 from Fisher Scientific (Hampton, NH)(catalog number BP337), TCEP from Calbiochem and 7.5% bovine serum albumin (BSA) from Life Technologies (Carlsbad, CA) (catalog number 15260037). 384-well, black assay plates were obtained from Corning (Corning, NY) (catalog number 3575).
(§2) Recombinant human HDAC1, HDAC2, and HDAC3/SMRT heterodimer were prepared by Merck Research Laboratories. […] The eluted protein was then passed over an anti-HDAC1 immunoaffinity column to remove any complexes containing HDAC1. […]
(§3) The histone deacetylase activities of HDAC1, HDAC2, HDAC3, HDAC6, and HDAC8 were measured in modified Fluor-de-Lys assays in 384-well format. In this assay, HDAC enzymes are initially incubated with an ε-acetyl (or -trifluoroacetyl)-L-lysine-containing substrate with a C-terminal amide having aminomethylcoumarin as the amine component. HDACs cleave the ε-acetyl group, rendering the resulting product susceptible to AMC cleavage by trypsin. The released AMC is then detected by its fluorescence.
(§4) The HDAC 1, 2 assays employed buffer A, which contained 20 mM HEPES, pH 8.0, 1 mM MgCl2, 137 mM NaCl, 2.7 mM KCl, 0.05% BSA. The HDAC3/SMRT assay employed buffer B, consisting of 20 mM HEPES, pH 8.0, 1 mM MgCl2, 50 mM NaCl, 2.7 mM KCl, 0.05% BSA, 0.005% Tween 20, and 10 μM IP4. The HDAC6 assay employed buffer C, consisting of 20 mM HEPES, pH 8.0, 1 mM MgCl2, 137 mM NaCl, 2.7 mM KCl, 0.5 mM TCEP (Calbiochem) and 0.05% BSA. The HDAC8 assay employed buffer D, consisting of 20 mM HEPES, pH 8.0, 1 mM MgCl2, 100 mM NaCl, 20 mM KCl, 0.1% n-octyl-β-D-glucoside (Anatrace, Maumee, OH) and 0.05% BSA. All steps were performed at room temperature (23° C.). The assay was performed by pre-incubating serial dilutions of test compounds with the target HDAC prior to initiation with substrate. Each compound was titrated in a 10-point dose response, using a 1:3 fold dilution scheme, with 0.15 ul of solution added by ECHO555 to the plate, followed by the addition of 20 μl of the appropriate HDAC isoform diluted in appropriate assay buffer. […] Final conditions used for each assay were: 1. HDAC 1, 0.3 nM total enzyme, 20 μM substrate BML-K1104; 2. HDAC 2, 1.5 nM total enzyme, 40 μM substrate BML-K1104; 3. HDAC 3/SMRT, 0.3 nM total enzyme, 20 μM substrate BML-K1104; 4. HDAC 6, 1.3 nM total enzyme, 2.5 μM substrate BML-K1104; 5. HDAC 8, 1.3 nM total enzyme, 200 μM substrate BML-K1178; the final high dose of test compound was 30 μM. […] The reactions were stopped and developed by addition of 30 ul of HDAC developer solution containing a saturating level of HDAC inhibitor as follows: 1.

human HDAC2 = target: T2, human HDAC2 (Homo sapiens, UniProt Q92769); assay: Human HDAC enzyme inhibitor Fluor-de-Lys assay, HDAC2; details: 1.5 nM enzyme, 40 μM substrate BML-KI104, 3 h pre-incubation, 60 min reaction; read-out: HDAC2_IC50
T2 construct: Full length human HDAC2-FLAG was expressed in baculovirus infected Sf9 cells; host or cells: baculovirus infected Sf9 cells
From the text: as §1, §2, §3, §4

HDAC6 = target: T3, HDAC6 (Homo sapiens, UniProt Q9UBN7); assay: Human HDAC enzyme inhibitor Fluor-de-Lys assay, HDAC6; details: 1.3 nM enzyme, 2.5 μM substrate BML-KI104, 3 h pre-incubation, 60 min reaction; read-out: HDAC6_IC50
T3 sequence (Q9UBN7 1-1215): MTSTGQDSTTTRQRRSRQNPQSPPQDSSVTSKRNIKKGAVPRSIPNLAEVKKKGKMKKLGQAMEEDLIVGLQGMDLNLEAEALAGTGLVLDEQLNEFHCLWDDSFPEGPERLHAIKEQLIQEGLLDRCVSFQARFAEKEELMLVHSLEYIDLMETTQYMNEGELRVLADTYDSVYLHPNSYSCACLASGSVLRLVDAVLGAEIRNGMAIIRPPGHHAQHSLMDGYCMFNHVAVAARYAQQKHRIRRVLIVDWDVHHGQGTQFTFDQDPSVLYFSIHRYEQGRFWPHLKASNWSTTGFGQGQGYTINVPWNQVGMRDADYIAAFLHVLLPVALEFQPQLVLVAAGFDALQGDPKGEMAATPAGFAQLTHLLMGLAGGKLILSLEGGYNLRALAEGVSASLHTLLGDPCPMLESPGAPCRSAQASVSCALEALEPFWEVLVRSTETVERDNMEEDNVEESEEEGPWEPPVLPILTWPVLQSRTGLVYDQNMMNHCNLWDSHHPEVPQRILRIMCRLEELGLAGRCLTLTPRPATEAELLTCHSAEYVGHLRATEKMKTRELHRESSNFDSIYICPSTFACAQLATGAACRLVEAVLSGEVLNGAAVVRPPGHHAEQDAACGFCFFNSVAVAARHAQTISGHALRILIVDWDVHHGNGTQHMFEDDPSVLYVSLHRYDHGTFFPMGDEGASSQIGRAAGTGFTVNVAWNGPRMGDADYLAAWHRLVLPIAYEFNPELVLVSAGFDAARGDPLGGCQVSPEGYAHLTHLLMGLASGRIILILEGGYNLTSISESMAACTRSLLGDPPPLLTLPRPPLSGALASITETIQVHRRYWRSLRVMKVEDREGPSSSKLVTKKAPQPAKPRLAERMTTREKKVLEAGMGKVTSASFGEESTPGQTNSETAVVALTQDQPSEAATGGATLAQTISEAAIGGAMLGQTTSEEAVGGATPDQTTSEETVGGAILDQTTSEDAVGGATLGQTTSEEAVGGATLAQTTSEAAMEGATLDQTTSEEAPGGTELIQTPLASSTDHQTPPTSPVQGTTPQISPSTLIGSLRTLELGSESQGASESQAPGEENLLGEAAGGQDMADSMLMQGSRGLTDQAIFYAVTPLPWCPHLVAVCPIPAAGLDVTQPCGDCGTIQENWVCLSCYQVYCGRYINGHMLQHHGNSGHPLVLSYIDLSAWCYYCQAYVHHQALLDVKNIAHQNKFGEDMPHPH
From the text: as §1, §3
(§5) The HDAC 1, 2 assays employed buffer A, which contained 20 mM HEPES, pH 8.0, 1 mM MgCl2, 137 mM NaCl, 2.7 mM KCl, 0.05% BSA. The HDAC3/SMRT assay employed buffer B, consisting of 20 mM HEPES, pH 8.0, 1 mM MgCl2, 50 mM NaCl, 2.7 mM KCl, 0.05% BSA, 0.005% Tween 20, and 10 μM IP4. The HDAC6 assay employed buffer C, consisting of 20 mM HEPES, pH 8.0, 1 mM MgCl2, 137 mM NaCl, 2.7 mM KCl, 0.5 mM TCEP (Calbiochem) and 0.05% BSA. The HDAC8 assay employed buffer D, consisting of 20 mM HEPES, pH 8.0, 1 mM MgCl2, 100 mM NaCl, 20 mM KCl, 0.1% n-octyl-β-D-glucoside (Anatrace, Maumee, OH) and 0.05% BSA. All steps were performed at room temperature (23° C.). The assay was performed by pre-incubating serial dilutions of test compounds with the target HDAC prior to initiation with substrate. Each compound was titrated in a 10-point dose response, using a 1:3 fold dilution scheme, with 0.15 ul of solution added by ECHO555 to the plate, followed by the addition of 20 μl of the appropriate HDAC isoform diluted in appropriate assay buffer. […] Final conditions used for each assay were: 1. HDAC 1, 0.3 nM total enzyme, 20 μM substrate BML-K1104; 2. HDAC 2, 1.5 nM total enzyme, 40 μM substrate BML-K1104; 3. HDAC 3/SMRT, 0.3 nM total enzyme, 20 μM substrate BML-K1104; 4. HDAC 6, 1.3 nM total enzyme, 2.5 μM substrate BML-K1104; 5. HDAC 8, 1.3 nM total enzyme, 200 μM substrate BML-K1178; the final high dose of test compound was 30 μM. For potent compounds, 900 nM was used as the final high dose. The reactions were stopped and developed by addition of 30 ul of HDAC developer solution containing a saturating level of HDAC inhibitor as follows: 1.

human HDAC8 = target: T4, human HDAC8 (Homo sapiens, UniProt Q9BY41); assay: Human HDAC enzyme inhibitor Fluor-de-Lys assay, HDAC8; details: 1.3 nM enzyme, 200 μM substrate BML-KI178, 3 h pre-incubation, 60 min reaction; read-out: HDAC8_IC50
T4 construct: purchased Enzo Life Sciences BML-SE145-0100
T4 sequence (Q9BY41 1-377): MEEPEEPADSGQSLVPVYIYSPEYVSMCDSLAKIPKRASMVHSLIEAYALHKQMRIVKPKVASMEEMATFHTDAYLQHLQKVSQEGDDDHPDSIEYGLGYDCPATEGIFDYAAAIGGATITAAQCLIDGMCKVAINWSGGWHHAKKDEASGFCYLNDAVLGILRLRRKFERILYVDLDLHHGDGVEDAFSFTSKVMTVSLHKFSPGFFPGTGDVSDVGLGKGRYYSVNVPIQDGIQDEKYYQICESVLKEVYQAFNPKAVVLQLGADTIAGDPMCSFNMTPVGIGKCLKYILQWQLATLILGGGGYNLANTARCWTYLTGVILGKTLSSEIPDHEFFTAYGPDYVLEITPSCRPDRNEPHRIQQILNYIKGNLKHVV
From the text: as §1, §3, §5

T2 sequence (Q92769 whole entry): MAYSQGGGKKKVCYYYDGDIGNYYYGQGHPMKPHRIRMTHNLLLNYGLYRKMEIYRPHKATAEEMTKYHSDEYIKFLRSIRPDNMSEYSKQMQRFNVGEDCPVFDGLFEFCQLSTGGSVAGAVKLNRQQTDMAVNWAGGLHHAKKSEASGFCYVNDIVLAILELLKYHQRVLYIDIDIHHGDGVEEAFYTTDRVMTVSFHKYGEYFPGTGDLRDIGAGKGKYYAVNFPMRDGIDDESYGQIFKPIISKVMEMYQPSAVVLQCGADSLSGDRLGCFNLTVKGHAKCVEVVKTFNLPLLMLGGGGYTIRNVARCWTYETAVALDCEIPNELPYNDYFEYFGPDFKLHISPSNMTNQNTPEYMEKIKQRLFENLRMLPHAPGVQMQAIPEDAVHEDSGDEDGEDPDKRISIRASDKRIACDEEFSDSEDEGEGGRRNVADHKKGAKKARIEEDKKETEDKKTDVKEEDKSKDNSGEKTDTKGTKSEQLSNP
T1 sequence (O15379 whole entry): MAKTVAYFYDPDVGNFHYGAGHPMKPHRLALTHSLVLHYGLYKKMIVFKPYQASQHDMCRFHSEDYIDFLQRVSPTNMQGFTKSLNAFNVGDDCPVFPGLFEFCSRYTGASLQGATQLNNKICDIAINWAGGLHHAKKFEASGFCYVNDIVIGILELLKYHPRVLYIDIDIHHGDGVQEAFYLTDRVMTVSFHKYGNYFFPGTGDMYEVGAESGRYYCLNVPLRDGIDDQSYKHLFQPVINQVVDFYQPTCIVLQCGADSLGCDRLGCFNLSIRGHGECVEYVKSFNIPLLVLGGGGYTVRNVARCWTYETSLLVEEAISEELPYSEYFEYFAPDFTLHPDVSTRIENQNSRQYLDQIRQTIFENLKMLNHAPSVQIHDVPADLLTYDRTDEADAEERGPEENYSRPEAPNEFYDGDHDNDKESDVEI
T1 sequence (Q9Y618 1-899 partner limits assumed): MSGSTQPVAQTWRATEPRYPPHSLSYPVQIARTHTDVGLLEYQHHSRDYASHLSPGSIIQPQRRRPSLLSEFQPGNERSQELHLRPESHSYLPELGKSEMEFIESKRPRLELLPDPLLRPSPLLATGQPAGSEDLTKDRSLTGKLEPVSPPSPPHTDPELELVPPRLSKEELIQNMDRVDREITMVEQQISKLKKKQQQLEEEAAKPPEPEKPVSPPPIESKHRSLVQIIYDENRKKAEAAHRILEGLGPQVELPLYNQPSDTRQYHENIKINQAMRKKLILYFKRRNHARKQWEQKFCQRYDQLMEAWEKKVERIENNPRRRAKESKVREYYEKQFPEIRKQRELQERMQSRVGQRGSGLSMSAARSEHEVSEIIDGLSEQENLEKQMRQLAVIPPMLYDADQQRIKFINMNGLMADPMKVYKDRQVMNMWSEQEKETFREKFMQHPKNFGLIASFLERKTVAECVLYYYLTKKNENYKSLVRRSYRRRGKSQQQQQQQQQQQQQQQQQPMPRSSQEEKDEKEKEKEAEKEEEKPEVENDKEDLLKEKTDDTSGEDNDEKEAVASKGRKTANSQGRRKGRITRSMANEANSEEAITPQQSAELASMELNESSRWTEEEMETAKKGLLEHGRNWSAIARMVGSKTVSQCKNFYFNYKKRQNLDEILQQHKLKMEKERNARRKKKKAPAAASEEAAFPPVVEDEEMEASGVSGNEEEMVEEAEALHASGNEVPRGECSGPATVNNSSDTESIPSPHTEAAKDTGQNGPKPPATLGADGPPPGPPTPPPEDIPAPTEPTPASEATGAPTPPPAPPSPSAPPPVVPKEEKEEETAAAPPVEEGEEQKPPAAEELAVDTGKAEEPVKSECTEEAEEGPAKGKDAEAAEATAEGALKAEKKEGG

Row | IC50 [1] | IC50 (human HDAC2) | IC50 (HDAC6) | IC50 (human HDAC8) | Structure (SMILES)
1 | 0.298 µM | 4.35 µM | – | – | CCC(=O)CCCOC[C@H](NC(=O)C1CN(C)C1)c1ncc(-c2cc3ccccc3nc2OC)[nH]1 [Compound 3, (R)—N-(1-(5-(2-methoxyquinolin-3-yl)-1H-imidazol-2-yl)-2-((4-oxohexyl)oxy)ethyl)-1-methylazetidine-3-carboxamide]
2 | – | – | 23.3 µM | > 45 µM | CCC(=O)CCCOC[C@H](NC(=O)[C@H]1CC12CCN(C)CC2)c1ncc(-c2cc3ccccc3nc2OC)[nH]1 [Compound 4, (S)—N—((R)-1-(5-(2-methoxyquinolin-3-yl)-1H-imidazol-2-yl)-2-((4-oxohexyl)oxy)ethyl)-6-methyl-6-azaspiro[2.5]octane-1-carboxamide]
